Results taken from patent US20230158109A1, “USE OF CD83 IN COMBINATION THERAPIES” (Colmmune, Inc., priority 2006, published 2023).

How the values were obtained:
[1] = test system: C3H Hearts in C57BL/6 Recipients; test: Heterotopic heart transplantation, graft survival, C3H to C57BL/6; details: sCD83 100 μg i.p. daily days 1-7 then q.o.d. days 8-16, sirolimus 2 mg/kg p.o. days 0-14, anti-CD45RB mAb 100 μg i.v. days 0-14
Method: (§1) Hearts were removed from donor mice as indicated and transplanted into the peritoneal cavity of recipient mice (i.e., heterotopic transplantation). Recipient mice were treated as indicated, with some treatments beginning prior to transplantation. Survival of the allograft was monitored and scored as follows: “A,” beating strongly; “B,” mild decline in the intensity of pulsation; “C,” noticeable decline in the intensity of pulsation; “D,” complete cessation of cardiac impulses. Mean survival time of the transplanted tissue was determined for each treatment.
In a further set of experiments, C3H mouse hearts were transplanted into the peritoneal cavity of C57BL/6 mice (results shown in Table 3 and FIG. 7). […] Other treatments included subtherapeutic doses of either anti-CD45RB monoclonal antibody (“mAb”) (i.e., 100 μg/mouse every day from days 0 through 14 by intravenous injection) or sirolimus (i.e., 2 mg/kg every day from days 0 through 14 by oral administration (“p.o.”)).

[2] = test system: C3H Hearts in BALB/c Recipients; test: Heterotopic heart transplantation, graft survival, C3H to BALB/c; details: sCD83 100 μg i.p. daily day -1 to 28, sirolimus 2 mg/kg oral day 0-14, anti-CD45RB 100 μg i.v. day 0-14
Method: as §1
In a first set of experiments, C3H donor mice and BALB/c recipient mice were used. In this set of experiments, sCD83 treatment began on day −1 (i.e., the day prior to transplantation) and lasted until day 28; each day, 100 μg of sCD83 was administered to each mouse by intraperitoneal injection. Sirolimus treatment began on day 0 (i.e., the day of transplantation) and continued until day 14; each day, 2 mg/kg of sirolimus was administered orally to each mouse. Anti-CD45RB treatment began on day 0 and continued until day 14; each day, 100 μg of anti-CD45RB (BioExpress, Inc., West Lebanon, New Hampshire) was administered to each mouse intravenously.

[3] = test system: C57BL/6 Hearts in BALB/c Recipients; test: Intra-abdominal heterotopic heart transplantation, graft survival, C57BL/6 to BALB/c; format: in vivo, mouse; details: sCD83 100 μg i.p. daily day -1 to 7, then every other day to day 28, tacrolimus 8 mg/kg/day oral, MMF 80 mg/kg/day oral
Method: Treatment with tacrolimus was by daily oral administration of a subtherapeutic dose of 8 mg/kg/day, and treatment with MMF was by daily oral administration of a low dose of 80 mg/kg/day.
In further experiments, transplant recipients were treated with a shorter course of administrations and a different route of administration.

Row | Structure (SMILES) | MST [1] | MST [2] | MST [3]
1 | CO[C@H]1C[C@@H]2CC[C@@H](C)[C@@](O)(O2)C(=O)C(=O)N2CCCC[C@H]2C(=O)O[C@H]([C@H](C)C[C@@H]2CC[C@@H](O)[C@H](OC)C2)CC(=O)[C@H](C)/C=C(\C)[C@@H](O)[C@@H](OC)C(=O)[C@H](C)C[C@H](C)/C=C/C=C/C=C/1C [Sirolimus, sirolimus, reference compound] | 16.7 ± 2.1 days | 21.3 ± 6.2 days | –
2 | C=CC[C@@H]1/C=C(\C)C[C@H](C)C[C@H](OC)[C@H]2O[C@@](O)(C(=O)C(=O)N3CCCC[C@H]3C(=O)O[C@H](/C(C)=C/[C@@H]3CC[C@@H](O)[C@H](OC)C3)[C@H](C)[C@@H](O)CC1=O)[C@H](C)C[C@@H]2OC [Tacrolimus, tacrolimus, reference compound] | – | – | 16.3 ± 1.0 days
